These results are taken from patent publication US9737544B2, “Compounds” (ASTEX THERAPEUTICS LIMITED, priority 2012, dated 2017).

Some results are limits rather than exact numbers.

Common to all, as to type: cell-based
Test [1] deals with Ba/F3-KDR-transfected cells. As to the kind of experiment: Ba/F3-KDR (minus IL3 or plus IL3) cellular proliferation assay. The settings on record: 24 h, read-out: BAF3-KDR (MIN IL3) pIC50 (converted).
Test [2] has as its system Ba/F3-FGFR1-transfected cells. As to the kind of experiment: Ba/F3-FGFR1 (minus IL3 or plus IL3) cellular proliferation assay. To be noted: 24 h, read-out: BAF3-FGFR1 (MIN IL3) pIC50 (converted).
Test [3] relates to Ba/F3-FGFR4-transfected cells. The experiment in a line: Ba/F3-FGFR4 cellular proliferation assay. To be noted: 24 h, read-out: BAF3-FGFR 4 pIC50 (converted).
In test [4] the test system is Ba/F3-FGFR3-transfected cells. As to the kind of experiment: Ba/F3-FGFR3 (minus IL3 or plus IL3) cellular proliferation assay. The settings on record: 24 h, read-out: BAF3-FGFR3 (MIN IL3) pIC50 (converted).

Turning to `COc1cc(OC)cc(C(O)c2ccc3ncc(-c4cnn(C)c4)nc3n2)c1` (stereo not shown) [Compound 2], the IC50 in test [1] is > 10 µM.

As for `COc1cc(OC)cc(C(C)(O)c2ccc3ncc(-c4cnn(C)c4)nc3n2)c1` (stereo not shown) [Compound 3], the IC50 in test [2] and in test [1] was > 10 µM each time.

As to `COC(=O)CC(c1cc(OC)cc(OC)c1)c1ccc2ncc(-c3cnn(C)c3)nc2n1` (stereo not shown) [Compound 4], the IC50 in test [1] and in test [3] was > 10 µM each time.

As to `COc1cc(OC)cc(C(=O)c2ccc3ncc(-c4cnn(C)c4)cc3n2)c1` [Compound 8], the IC50 in test [1] and in test [3] was > 10 µM in each case.

As to `COc1cc(OC)cc(C(O)c2ccc3ncc(-c4cnn(C)c4)cc3n2)c1` (stereo not shown) [Compound 10], the IC50 in test [1] is > 10 µM.

On to `COc1cc(OC)cc(C(OCCO)c2ccc3ncc(-c4cnn(C)c4)cc3n2)c1` (stereo not shown) [Compound 11], for which the IC50 in test [1] was > 10 µM.

`COc1cc(OC)cc(C(CCO)c2ccc3ncc(-c4cnn(C)c4)nc3n2)c1` (stereo not shown) [Compound 14]: the IC50 in test [1] is > 10 µM.

As to `COc1cc(OC)cc(C(Cc2nccn2S(=O)(=O)N(C)C)c2ccc3ncc(-c4cnn(C)c4)nc3n2)c1` (stereo not shown) [Compound 15], the IC50 in test [1] was > 10 µM.

For the compound `COc1cccc(C(=O)c2ccc3ncc(-c4cnn(C)c4)cc3n2)c1` [Compound 16], the IC50 in test [2] and in test [1] was > 10 µM in each case.

Consider `COc1cccc(C(O)c2ccc3ncc(-c4cnn(C)c4)cc3n2)c1` (stereo not shown) [Compound 17], for which the IC50 in test [2] and in test [1] was > 10 µM each time.

In the case of `COc1cc(OC)cc(C(=O)c2ccc3ncc(N4CCOCC4)cc3n2)c1` [Compound 20], the IC50 in test [2], in test [1] and in test [3] was > 10 µM throughout.

As to `CCOC(=O)CC(c1cc(OC)cc(OC)c1)c1ccc2ncc(N3CCOCC3)cc2n1` (stereo not shown) [Compound 21], the IC50 in test [2], in test [1] and in test [3] was > 10 µM throughout.

`COc1cc(OC)cc(C(=O)c2cc3cc(-c4cnn(C)c4)cnc3cn2)c1` [Compound 23]: the IC50 in test [2], in test [1] and in test [3] was > 10 µM each time.

For `CCOC(=O)CC(c1cc(OC)cc(OC)c1)c1cc2cc(-c3cnn(C)c3)cnc2cn1` (stereo not shown) [Compound 24], the IC50 in test [2], in test [4], in test [1] and in test [3] was > 10 µM in each case.

`COc1cccc(C(=O)c2cc3cc(-c4cnn(C)c4)cnc3cn2)c1` [Compound 26]: the IC50 in test [2], in test [4] and in test [3] was > 10 µM each time.
